Test results: patent US5563292A, “Lipoxygenase inhibitors” (Schering Corporation, priority 1990, dated 1996)
Read-outs that look alike come from different tables or passages of the source.

Legend:
5-Lipoxygenase (5-LO) = target: T1, 5-Lipoxygenase (5-LO) (Homo sapiens, UniProt P09917); assay: 5-Lipoxygenase Assay with Human Neutrophils (A23187-stimulated 5-HETE and LTB4 production); format: cell-based; details: [14C] arachidonic acid 9 μM, A23187 1 μM
T1 construct: Human polymorphonuclear leukocytes (neutrophils) were obtained from normal healthy volunteers by venipuncture; endogenous in cells; host or cells: human peripheral blood neutrophils (polymorphonuclear leukocytes) from healthy volunteers, intact cells
T1 sequence (P09917 1-674): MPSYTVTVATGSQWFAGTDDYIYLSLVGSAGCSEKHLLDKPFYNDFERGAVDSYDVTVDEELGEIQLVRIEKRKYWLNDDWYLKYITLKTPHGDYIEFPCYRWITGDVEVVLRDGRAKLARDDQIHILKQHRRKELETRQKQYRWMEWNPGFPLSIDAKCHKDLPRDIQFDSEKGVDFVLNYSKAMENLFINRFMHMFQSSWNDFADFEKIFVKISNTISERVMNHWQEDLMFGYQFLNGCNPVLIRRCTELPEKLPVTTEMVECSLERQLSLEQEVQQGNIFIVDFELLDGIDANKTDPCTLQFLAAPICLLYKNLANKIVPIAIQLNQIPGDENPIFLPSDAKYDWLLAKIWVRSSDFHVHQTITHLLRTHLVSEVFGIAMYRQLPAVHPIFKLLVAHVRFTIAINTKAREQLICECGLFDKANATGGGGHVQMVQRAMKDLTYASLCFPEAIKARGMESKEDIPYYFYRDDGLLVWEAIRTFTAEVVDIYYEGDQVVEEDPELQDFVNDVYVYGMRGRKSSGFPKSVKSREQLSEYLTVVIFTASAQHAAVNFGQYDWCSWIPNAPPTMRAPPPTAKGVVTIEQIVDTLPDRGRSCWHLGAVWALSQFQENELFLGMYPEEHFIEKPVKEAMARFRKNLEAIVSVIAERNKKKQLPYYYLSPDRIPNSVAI
Description: 5-Lipoxygenase Assay with Human Neutrophils
Human polymorphonuclear leukocytes (neutrophils) were obtained from normal healthy volunteers by venipuncture and collected with heparin anticoagulant. Neutrophils were isolated by Dextran/Ficol sedimentation as described (Billah et al., J. Biol. Chem. 260, 6899-6906 (1985)). In brief, 30 ml of blood was mixed with 5 ml of dextran (Sigma) solution and kept at 37 C for 30 min. The upper white cell-rich layer was removed and 10 ml was layered on 9 ml of Ficol-Pague solution (Pharmacia) and centrifuged at 280×g for 10 min. at 5° C. The supernatant was removed and the neutrophil pellet was resuspended in HEPES buffer containing 25 mM N-2-hydroxyethylpiperazine-N^1 -2-ethanesulfonic acid (HEPES), 125 mM NaCl, 2.5 mM KCl, 0.7 mM MgCl2, […] 10 mM glucose at pH 7.4. The red cells in the suspension were lysed by hypotonic shock. The neutrophils were washed by centrifugation in HEPES buffer two times and finally resuspended at a concentration of 20×10^6 cells/ml in the presence of 1 mM CaCl2.
Neutrophils (0.2 ml of suspension) were preincubated with dimethylsulfonxide (DMSO) vehicle with or without test compound (1 μl) for 4 minutes then incubated for 5 minutes with [^14 C] arachidonic acid (Amersham, 59 Ci/mole) at a 9 μM final concentration, and the calcium ionophore A23187 (Calbiochem) at a 1 μM final concentration. These stimulants were added in 10 μl of water:ethanol (9:1). The reaction was stopped by addition of methanol (0.4 ml), and cellular debris was removed by centrifugation. Aliquots (100 ul) of the incubations were run on a Waters two pump HPLC system fitted with a DuPont Zorbax ODS, 5μ, […] Reliance Cartridge column and C18 "Guard Pak". The column was initially eluted at 2 ml/min with 80% of the mixture water:methanol:acetic acid (46:54:0.08) containing 1 mM EDTA adjusted to pH 6.0 with ammonium hydroxide (Pump A) and 20% methanol (Pump B). At 10 minutes, a linear gradient to reach 100% methanol (Pump B) at 27 minutes was established. Between 27 and 28 minutes, methanol was exchanged for the initial eluting solvent and by 35 minutes the column had been reequilibrated for the next sample. The effluent was analyzed by a continuous flow radioactivity monitor (model ROMONA-D) interfaced with a Hewlett Packard Lab Automation System for quantitation of radioactive products. These were predominantly leukotriene B4 (LTB4) which eluted at 7 minutes, and 5-hydroxyeicosatetraenoic acid (5-HETE) which eluted at 20 minutes.

mouse ear = assay: Arachidonic Acid Mouse Ear Test; format: in vivo; details: topical, 30 minutes prior to arachidonic acid, biopsy 1 hour after challenge
Description: Charles River, female, CD, (SD) BR mice, 6 weeks old, are caged 8/group and allowed to acclimate 1-3 weeks prior to use.
Arachidonic acid (AA) is dissolved in reagent grade acetone (2 mg/0.01 ml) and stored at -20° C. for a maximum of 1 week prior to use. Inflammatory reactions are induced by applying 10 μl of AA to both surfaces of one ear ([…] total).
Test drugs are dissolved in either reagent grade acetone or aqueous ethanol (only if insoluble in acetone) at the same doses selected by Opas et al., Fed. Proc. 43, Abstract 2983, p. 1927 (1984) and Young et al., J. Invest. Dermatol. 82, pp. 367-371 (1984). These doses are employed to ensure maximum responses and to overcome any difference in topical absorption which could occur with any drug applied in an aqueous ethanol vehicle. The test drug is applied 30 minutes prior to challenge with AA.
The severity of the inflammation is measured as a function of increased ear weight. A 6 mm punch biopsy is removed 1 hour after AA challenge and weighed to the nearest 0.1 mg. Mean±standard error and all possible comparisons are made via Duncan's Multiple Range Statistic.

[1] = read-out: 5-LO inhibition, % inhibition 5-HETE
[2] = read-out: 5-LO inhibition, % inhibition LTB4

| inhibition at 15 µM (5-Lipoxygenase (5-LO); [1]) [%] | inhibition at 15 µM (5-Lipoxygenase (5-LO); [2]) [%] | inhibition at 5 µM (5-Lipoxygenase (5-LO); dose 5 μM) [%] | SMILES | Mouse ear assay, % inhibition (ear weight) (mouse ear; dose 1.0 mg/ear) [%] | Mouse ear assay, % inhibition (ear weight) (mouse ear; dose 0.5 mg/ear) [%] |
| --- | --- | --- | --- | --- | --- |
| 98 | 100 | – | COC(=O)CCCC(C)(CC(C)(C)c1cc(OC)cc(OC)c1)c1cc(OC)cc(OC)c1 (stereo not drawn) [Formula 44] | – | – |
| 33 | 14 | – | COc1cc(OC)cc(C(C)(C)CC(C)(CCCC(=O)O)c2cc(OC)cc(OC)c2)c1 (stereo not drawn) [Formula 45] | – | – |

The next lines start with the molecule.

| SMILES | inhibition at 15 µM (5-Lipoxygenase (5-LO); [1]) [%] | inhibition at 15 µM (5-Lipoxygenase (5-LO); [2]) [%] | inhibition at 5 µM (5-Lipoxygenase (5-LO); dose 5 μM) [%] | Mouse ear assay, % inhibition (ear weight) (mouse ear; dose 1.0 mg/ear) [%] | Mouse ear assay, % inhibition (ear weight) (mouse ear; dose 0.5 mg/ear) [%] |
| --- | --- | --- | --- | --- | --- |
| COc1cc(OC)cc(C(C)(C)CC(C)(CCCCO)c2cc(OC)cc(OC)c2)c1 (stereo not drawn) [Formula 41, 5,7-dimethyl-5,7-bis(3,5-dimethoxyphenyl)-1-octanol] | 99 | 97 | – | 72 | – |
| COc1cc(OC)cc(C(C)(C)CC(C)(CCCCOC(C)=O)c2cc(OC)cc(OC)c2)c1 (stereo not drawn) [Formula 42] | 95 | 100 | – | – | 40 |
| COc1cc(OC)cc(C(C)(C)CC(C)(CCCC=O)c2cc(OC)cc(OC)c2)c1 (stereo not drawn) [Formula 43] | 97 | 97 | – | – | – |
| COc1cc(OC)cc(C(C)(C)CC(C)(CCCC(=O)NO)c2cc(OC)cc(OC)c2)c1 (stereo not drawn) [Formula 46] | 99 | 96 | 63 | – | – |
